# Experimental data taken from BindingDB's records for patent US20240368170 (Genentech, 2024).
# Biological target: Mitogen-activated protein kinase kinase kinase kinase 1 (Homo sapiens, UniProt Q92918)
# Test: Lantha Binding Assay
# Method: For the binding assay, 4 μL 2×HPK1 and Eu-anti-GST antibody were added to each well of the assay plate using a Multidrop reagent dispenser. The solutions were incubated in a 23 C incubator for 1 h. […] The solutions were again incubated in a 23° C. incubator for 1 h.
# Sequence of Mitogen-activated protein kinase kinase kinase kinase 1 (Q92918 whole entry): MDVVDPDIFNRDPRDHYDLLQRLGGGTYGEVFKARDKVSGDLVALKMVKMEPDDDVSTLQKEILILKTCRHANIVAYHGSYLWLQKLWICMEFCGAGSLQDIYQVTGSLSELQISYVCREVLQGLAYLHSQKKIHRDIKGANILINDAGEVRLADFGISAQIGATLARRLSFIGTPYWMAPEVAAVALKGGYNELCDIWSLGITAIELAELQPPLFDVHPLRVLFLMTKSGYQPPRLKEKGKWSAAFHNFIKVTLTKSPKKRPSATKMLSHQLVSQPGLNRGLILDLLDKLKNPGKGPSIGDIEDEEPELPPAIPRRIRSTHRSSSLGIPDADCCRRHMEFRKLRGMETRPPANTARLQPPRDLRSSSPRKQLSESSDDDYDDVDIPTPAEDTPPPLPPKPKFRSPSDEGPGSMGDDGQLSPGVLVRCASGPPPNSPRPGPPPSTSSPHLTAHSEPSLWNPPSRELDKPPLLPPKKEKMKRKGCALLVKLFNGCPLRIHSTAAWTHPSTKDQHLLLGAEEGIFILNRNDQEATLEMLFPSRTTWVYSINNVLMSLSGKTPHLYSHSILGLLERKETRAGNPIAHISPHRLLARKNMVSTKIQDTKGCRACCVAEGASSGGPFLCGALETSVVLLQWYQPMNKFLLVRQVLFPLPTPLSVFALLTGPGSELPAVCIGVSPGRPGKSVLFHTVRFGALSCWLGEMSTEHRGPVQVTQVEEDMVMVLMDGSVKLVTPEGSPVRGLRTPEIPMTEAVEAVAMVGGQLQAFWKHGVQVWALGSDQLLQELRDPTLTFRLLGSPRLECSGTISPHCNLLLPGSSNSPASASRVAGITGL
row,Ki [nM],SMILES
1,21,"CC(C)NC(=O)Nc1cc2cc(-c3cnn(C)c3)cc(N)c2nn1 [US20240368170, Compound 8]"
2,84,"CCn1cc(-c2cc(N)c3nnc(NC(=O)[C@@H]4C[C@@H]4F)cc3c2)cn1 [US20240368170, Compound 1a]"
